Assay results from patent US20250163119A1, “COMPOUNDS FOR THE TREATMENT OF DIABETES OR OBESITY” (Eli Lilly and Company, priority 2023, published 2025).
Where “and” joins values, the source holds several entries; their conditions need not be identical. Identical values can stand only once. Like-named read-outs stand apart in the source and are kept apart here. *1 amine or outer side, *2 acyl side, *3 side chain or, on linkers, in order; H or OH if unused. Where a SMILES comes first, the peptide text is derived from it. Side-chain parts run from the residue outwards. [ ]: non-standard residue; d: D form. The star is where a group is joined. C20 diacid = O=C(O)CCCCCCCCCCCCCCCCCCC(=O)*; γGlu = O=C(O)[C@H](CCC(=O)[*:2])N[*:1]; NMeI = CC[C@H](C)[C@H](NC)C(=O)O; αMeL = CC(C)C[C@](C)(N)C(=O)O; AEEA = NCCOCCOCC(=O)O; Aib = CC(C)(N)C(=O)O

How the values were obtained:
[1] = Pharmacokinetics in Sprague Dawley rats, single subcutaneous or intravenous dose (incl. 10, 30, 100 nmol/kg dose response); type: in vivo
[2] = tested on: MHC-II presented peptides on human dendritic cells; assay: MAPPS assay (MHC-Associated Peptide Proteomics); type: cell-based; conditions: for peptides displayed on MHC-II complexes: human dendritic cells from normal donors; for immunogenicity compared with SEQ ID NO:54: in the MAPPs assay and/or the T cell proliferation assay
Protocol: MAPPS profiles the MHC-II presented peptides on human dendritic cells treated with tested molecules. CD14+ cells, isolated from the PBMCs of normal human donors, were cultured and differentiated into immature DCs by incubation with IL-4 and GM-CSF. On day 4, culture media was replaced with fresh media containing tested molecules. On day 5, LPS was added to transform the cells into mature DCs. On day 6, cells were lysed in RIPA buffer with protease inhibitors. Immunoprecipitation of MHC-II complexes were performed using biotinylated anti-MHC-II antibody coupled to streptavidin beads. The bound complex was eluted and filtered. The isolated MHC-II peptides were analyzed by a mass spectrometer. Peptide identifications were generated by an internal proteomics pipeline using search algorithms with no enzyme and a bovine/human database with test sequences appended to the database. A KNIME workflow was used to process the identification files from the samples. Peptides identified from the test articles were aligned against the parent sequence of the test molecule. The output was used to determine the percentage of donors displaying MHC-II peptides from regions of the test molecule. Polypeptides comprising SEQ ID NOs:54, 49, 50, 29, 41, 45, 1, 22, 25 were tested in the MAPPs assay. […] Depending on the donors, up to three major clusters were observed, each slightly shifted from the others, altogether spanning residues 1-33.

[3] = male, Sprague Dawley, rat, plasma, iv, 196 nmol/kg, single intravenous dose 196 nmol/kg, individual animal
[4] = male, Sprague Dawley, rat, plasma, iv, 196 nmol/kg, single intravenous dose 196 nmol/kg, mean
[5] = male, Sprague Dawley, rat, plasma, sc, 196 nmol/kg, single subcutaneous dose 196 nmol/kg, individual animal
[6] = male, Sprague Dawley, rat, plasma, sc, 196 nmol/kg, single subcutaneous dose 196 nmol/kg, individual animal, read-out: CL/F (converted)
[7] = male, Sprague Dawley, rat, plasma, sc, 196 nmol/kg, single subcutaneous dose 196 nmol/kg, mean
[8] = male, Sprague Dawley, rat, plasma, sc, 196 nmol/kg, single subcutaneous dose 196 nmol/kg, mean, read-out: CL/F (converted)
[9] = male, Sprague Dawley, rat, plasma, sc, 196 nmol/kg, single subcutaneous dose 196 nmol/kg, mean, read-out: Tmax
[10] = rat, plasma, sc, single subcutaneous dose 196 nmol/kg, male Sprague Dawley rats, mean, read-out: AUC0-inf
[11] = rat, plasma, sc, single subcutaneous dose 196 nmol/kg, male Sprague Dawley rats, mean, read-out: Cmax
[12] = rat, plasma, single intravenous dose 196 nmol/kg, male Sprague Dawley rats, mean, read-out: AUC0-inf
[13] = rat, plasma, single intravenous dose 196 nmol/kg, male Sprague Dawley rats, mean, read-out: C0
[14] = single intravenous dose 196 nmol/kg, male Sprague Dawley rats, individual animal
[15] = single subcutaneous dose 196 nmol/kg, male Sprague Dawley rats, individual animal
[16] = donors displaying MHC-II peptides / donors tested
[17] = percentage of donors displaying MHC-II peptides

Compound	clearance [1, 3]	half-life [1, 3]	clearance [1, 4]	half-life [1, 4]	half-life [1, 5]	CL/F [1, 6]	half-life [1, 7]	CL/F [1, 8]	Tmax [1, 9]	AUC0-inf [1, 10]	Cmax [1, 11]	AUC0-inf [1, 12]	C0 [1, 13]	AUC0-inf [1, 14]	C0 [1, 14]	CL [1, 14]	T1/2 [1, 14]	AUC0-inf [1, 15]	CL/F [1, 15]	Cmax [1, 15]	further results
CC[C@H](C)[C@H](NC(C)=O)C(=O)N[C@H](C(=O)N[C@H](C(=O)N[C@@H](CO)C(=O)N[C@@](C)(CC(C)C)C(=O)N[C@@H](CC(=O)O)C(=O)N[C@@H](C(=O)N1CCC[C@H]1C(=O)N[C@H](C(=O)NC(C)(C)C(=O)N[C@@](C)(CC(C)C)C(=O)N[C@@H](CC(C)C)C(=O)N[C@@H](CCC(N)=O)C(=O)N[C@H](C(=O)N[C@@H](CCCCN)C(=O)N[C@@H](CC(C)C)C(=O)N[C@@H](CCC(=O)O)C(=O)N[C@@H](CCC(N)=O)C(=O)N[C@@H](CCC(=O)O)C(=O)N[C@@H](CCCNC(=N)N)C(=O)N[C@@H](C)C(=O)N[C@@H](CCC(=O)O)C(=O)N[C@@H](CCCCN)C(=O)N[C@@H](C)C(=O)N[C@@H](CCCNC(=N)N)C(=O)N[C@@H](CCC(N)=O)C(=O)N[C@@H](CCC(N)=O)C(=O)N[C@@H](C)C(=O)N[C@@H](CCCCNC(=O)COCCOCCNC(=O)COCCOCCNC(=O)CC[C@H](NC(=O)CCCCCCCCCCCCCCCCCCC(=O)O)C(=O)O)C(=O)N[C@@H](CCC(=O)O)C(=O)N[C@@H](CC(N)=O)C(=O)N[C@H](C(=O)N[C@@H](CCC(=O)O)C(=O)N[C@H](C(=O)N[C@@H](CC(C)C)C(=O)N[C@@H](C)C(=O)N[C@@H](CCC(N)=O)C(=O)N[C@H](C(N)=O)C(C)C)[C@@H](C)CC)[C@@H](C)O)[C@@H](C)CC)[C@@H](C)O)C(C)C)[C@@H](C)O)C(C)C [SEQ ID NO: 41, Ac-IVTS αMeL D (D-Val) PT Aib αMeL LQIKLEQERAEKARQQAK((2-[2-(2-Amino-ethoxy)-ethoxy]-acetyl)2-γE-CO-(CH2)18-CO2H)ENTEILAQV-NH2] (Ac-IVTS[αMeL]D[dV]PT[Aib][αMeL]LQIKLEQERAEKARQQAK([AEEA-AEEA-γGlu-C20 diacid])ENTEILAQV-NH2)	3.91 mL/h/kg	48.4 h	3.82 mL/h/kg	45.7 h	43.8 h	5.04 mL/h/kg	39.3 h	4.47 mL/h/kg	24 h	48.1 µM·h	550 nM	52.1 µM·h	1190 nM	50.1 µM·h and 60.6 µM·h and 45.5 µM·h	1350 nM and 1620 nM and 586 nM	3.23 mL/h/kg and 4.31 mL/h/kg	49.8 h and 39.0 h	43.1 µM·h and 56.2 µM·h and 45 µM·h	3.73 mL/h/kg and 4.63 mL/h/kg	467 nM and 645 nM and 539 nM	Tmax ([1]; male, Sprague Dawley, rat, plasma, sc, 196 nmol/kg, single subcutaneous dose 196 nmol/kg, individual animal, read-out: Tmax): 24 h; T1/2 [1, 15]: 36.5 h and 37.7 h; MAPPS Assay >10 donors with diverse MHC [2, 16]: 0/10; peptides displayed on MHC-II complexes [2]: no peptides displayed on MHC-II complexes; immunogenicity compared with SEQ ID NO:54 [2]: substantial improvements in immunogenicity over a compound comprising SEQ ID NO:54; MAPPS Assay >10 donors with diverse MHC [2, 17]: 0%
CC[C@H](C)[C@H](NC)C(=O)N[C@H](C(=O)N[C@H](C(=O)N[C@@H](CO)C(=O)N[C@@H](CC(C)C)C(=O)N[C@@H](CC(=O)O)C(=O)N[C@H](C(=O)N1CCC[C@H]1C(=O)N[C@H](C(=O)NCC(=O)N[C@@](C)(CC(C)C)C(=O)N[C@@H](CC(C)C)C(=O)N[C@@H](CCC(N)=O)C(=O)N[C@@H](CCCCN)C(=O)N[C@@H](CC(C)C)C(=O)N[C@H](C(=O)N[C@@H](CCC(=O)O)C(=O)N[C@@H](CCC(N)=O)C(=O)N[C@@H](CCC(=O)O)C(=O)N[C@@H](CCCCN)C(=O)N[C@@H](CCC(N)=O)C(=O)N[C@@H](CCC(=O)O)C(=O)N[C@@H](CCCCN)C(=O)N[C@@H](CCC(=O)O)C(=O)N[C@@H](CCCCN)C(=O)N[C@@H](CCC(N)=O)C(=O)N[C@@H](CCC(N)=O)C(=O)N[C@@H](C)C(=O)N[C@@H](CCCCNC(=O)COCCOCCNC(=O)COCCOCCNC(=O)CC[C@H](NC(=O)CCCCCCCCCCCCCCCCCCC(=O)O)C(=O)O)C(=O)N[C@@H](CCC(=O)O)C(=O)N[C@@H](CC(N)=O)C(=O)N[C@H](C(=O)N[C@@H](CCC(=O)O)C(=O)N[C@H](C(=O)N[C@@H](CC(C)C)C(=O)N[C@@H](C)C(=O)N[C@@H](CCC(N)=O)C(=O)N[C@H](C(N)=O)C(C)C)[C@@H](C)CC)[C@@H](C)O)[C@@H](C)CC)[C@@H](C)CC)C(C)C)[C@@H](C)O)C(C)C [SEQ ID NO: 49, (NMeI) VTSLDVPIG αMeL LQKLIEQEKQEKEKQQAK((2-[2-(2-Amino-ethoxy)-ethoxy]-acetyl)2-γE-CO-(CH2)18-CO2H)ENTEILAQV-NH2] (H-[NMeI]VTSLDVPIG[αMeL]LQKLIEQEKQEKEKQQAK([AEEA-AEEA-γGlu-C20 diacid])ENTEILAQV-NH2)	4.72 mL/h/kg	17.8 h	4.15 mL/h/kg	20.4 h	19.1 h	11.5 mL/h/kg	18.4 h	10.6 mL/h/kg	18 h	18.9 µM·h	394 nM	47.7 µM·h	2840 nM	41.5 µM·h and 53.1 µM·h and 48.4 µM·h	2790 nM and 2610 nM and 3110 nM	3.69 mL/h/kg and 4.05 mL/h/kg	21.7 h and 21.6 h	17.1 µM·h and 22.4 µM·h and 17.3 µM·h	8.76 mL/h/kg and 11.4 mL/h/kg	340 nM and 474 nM and 367 nM	T1/2 [1, 15]: 16.0 h and 20.2 h; Tmax [1, 15]: 24 h and 6 h; MAPPS Assay >10 donors with diverse MHC [2, 16]: 6/26; peptides displayed on MHC-II complexes [2]: at least one peptide cluster on MHC-II complexes in a subset of donors; immunogenicity compared with SEQ ID NO:54 [2]: substantial improvements in immunogenicity over a compound comprising SEQ ID NO:54; MAPPS Assay >10 donors with diverse MHC [2, 17]: 23%
